One assay relates to IL-17A. Put plainly: Cytokine suppression using human peripheral blood mononuclear cells: IL-17A. The class given is cell-based. The conditions noted are these: human PBMC, concanavalin A 20 μg/mL; read-out: IL-17A Inhibitory Activity, Human PBMC (Test Example 4). The protocol:
(§1) First, peripheral blood mononuclear cells (PBMC) were separated from whole blood by specific gravity centrifugation. Then, the isolated peripheral blood mononuclear cells were added to RPMI-1640 medium (containing 10% fetal bovine serum, penicillin, streptomycin, L-glutamine, and 2-mercaptoethanol), and cultured in a 96-well plate at 37° C. under 5% CO2 for 0 to 1 hour. The test compound dissolved in dimethyl sulfoxide was added to each well, followed by further culture at 37° C. under 5% CO2 for 1 hour. A medium containing only dimethyl sulfoxide instead of the test compound was added to the control well. […]
(§2) The measurement results obtained by measuring the TNFα inhibitory activity and IL-5 inhibitory activity (50% inhibitory concentration) of the test compounds by the above method were evaluated in accordance with the following evaluated basis; A: less than 10 nM, B: 10 nM or more and less than 100 nM, and C: 100 nM or more. In addition, the measurement results obtained by measuring the IL-17A inhibitory activity, IL-23 inhibitory activity, IL-4 inhibitory activity, and IL-13 inhibitory activity (50% inhibitory concentration) of the test compounds were evaluated in accordance with the following evaluated basis; A: less than 500 nM, B: 500 nM or more and less than 5000 nM, and C: 5000 nM or more.

A further assay has as its system IL-13. The experiment in a line: Cytokine suppression using human T cells: IL-13. The note with it: T-cell; human CD3-positive T cells, CD3 and CD28 antibody, about 48 hours; read-out: IL-13 Inhibitory Activity, Human T-Cell (Test Example 5). It is filed as cell-based. As to the method:
First, CD3-positive T cells were separated from whole blood by a magnetic bead method using an EasySep cell separation kit. Separated T cells suspended in RPMI-1640 medium were seeded on a 96-well plate previously coated with CD3 antibody (final concentration 3 μg/mL). Further, CD28 antibody (final concentration 5 ng/mL) was added as an IL-5 production stimulus and an IL-13 production stimulus. A test compound dissolved in dimethyl sulfoxide was added to each well, followed by culture at 37° C. under 5% CO2. The culture was carried out for about 18 hours for the evaluation of the amount of TNFα, and for about 48 hours for the evaluation of the amounts of IL-17A, IL-5, and IL-13. […]
as §2, with “TNFα” for “TNFα inhibitory activity and IL-5”, “IL-5” for “IL-23 inhibitory activity, IL-4”

The test system of another assay is IL-23. The experiment in a line: Cytokine suppression using human peripheral blood mononuclear cells: IL-23. It is filed as cell-based. The conditions noted are these: human PBMC, lipopolysaccharide 1 ng/mL; read-out: IL-23 Inhibitory Activity, Human PBMC (Test Example 4). As to the method:
as §1, §2

Assay [1] deals with histamine-induced vascular hyperpermeability, Crl:CD1 (ICR) mice. Put plainly: Histamine-induced mouse vascular hyperpermeability model. It is filed as in vivo. The note with it: 10 mg/kg orally, histamine intradermally. The protocol:
Evaluation was carried out using male Crl:CD1 (ICR) mice (6 to 7 weeks of age). First, before conducting the test, the hair on the back of the mice was shaved with a small hair clipper under isoflurane anesthesia (an appropriate amount of about 3% with an inhalation isoflurane anesthesia machine). Next, the mice were orally administered with 10 mg/kg (10 mL/kg) of the test compound dissolved or suspended in 0.5% w/v methylcellulose (0.5% MC), and intravenously administered with 0.4% Evans blue saline (10 mL/kg) after 1 to 4 hours, and approximately 2 minutes later, 15 mM histamine saline was intradermally administered to the dorsal neck as a vascular hyperpermeability substance (20 μL/site). […] The absorption value (620/670 nm) of the supernatant after centrifugation was measured with a plate reader, and the average absorption value of the blank group was subtracted therefrom. Using the resultant as the absorption value of each tissue lysate, the vascular permeability suppression rate was calculated by the following formula. […]
The measurement results obtained by measuring the vascular permeability suppression rate of the test compound by the above method were evaluated in accordance with the following evaluated basis; A: 90% or more, B: 80% or more and less than 90%, and C: less than 80%. […]

Experimental findings from US12239643B2, “Therapeutic agent for inflammatory diseases, autoimmune diseases, fibrotic diseases, and cancer diseases” (MEIJI SEIKA PHARMA CO., LTD., priority 2018, dated 2025) are described below.

Each structure is given as a SMILES string.

In the case of `CC(C)(O)C(F)(F)Oc1ccc(-c2nccs2)c2oc(N3CC4CC(C3)N4)nc12` [Example 248, 1-((2-(3,6-Diazabicyclo[3.1.1]heptan-3-yl)-7-(thiazol-2-yl)benzo[d]oxazol-4-yl)oxy)-1,1-difluoro-2-methylpropan-2-ol], the IC50 in the assay on IL-17A, in the assay with IL-13 and in the assay on IL-23 was below 500 nM in each case. Moreover, in assay [1], the “vascular permeability suppression rate” value was “A (A: 90% or more)”.
In the case of `CCOc1cc([C@@H](CS(C)(=O)=O)N2C(=O)c3cccc(NC(C)=O)c3C2=O)ccc1OC` [apremilast, reference compound], the IC50 in the assay on IL-17A is 500 to 5000 nM; with IL-13, 500 to 5000 nM; in the assay on IL-23, at least 5000 nM. The “vascular permeability suppression rate” value in assay [1] was “C (C: less than 80%)”.
